Measurements: patent US20100008894A1, “Process of Screening a Molecule as a Candidate Drug for the Treatment of Bipolar Disorder” (Institute pasteur, priority 2005, published 2010)

Tests used:
CysQ [1] = target: T1, CysQ (Escherichia coli, UniProt P22255); type: biochemical, E. coli
T1 construct: made in house; host or cells: E. coli MG1655 carrying pUM404, arabinose-induced

NM23-H2 = NM23-H2 (Homo sapiens, UniProt P22392); settings: cited from earlier work
Orn [2] = target: T2, Orn (Escherichia coli, UniProt P0A784); experiment: Orn activity assay (degradation of RNA-oligo 5mer); type: biochemical, E. coli; settings: 10 μM inhibitor; 3 μM 5′Cy5-CCCCC3′ RNA
T2 construct: made in house; host or cells: E. coli MG1655 carrying pUM408, arabinose-induced
Description: Custome made RNA-oligo 5mers (5′Cy5-CCCCC3′), obtained from Proligo, were used as substrate for in vitro activity assays. 30 μl reactions containing 50 mM HEPES pH 7.5, 5 mM MnCl2, 3 μM substrate RNA and 0.1 μg oligoribonuclease were incubated at 37° C., and reactions were initiated by adding substrate. Inhibitors were added as indicated in the text. At intervals, 5 μl reaction aliquots were taken and stopped by adding an equal volume of sample buffer (95% formamide, 20 mM EDTA, 0.1% bromphenol blue) and frozen at −20° C. For analysis of the reaction products, samples were heated at 80° C. for 3 minutes and 2.5 μl was applied to PAGE on a 22% SDS-PAA gel containing 2×TBE and run in 2×TBE. Fluorescent RNA oligos were visualized using a Molecular Dynamics STORM 860 in 650-nm long-pass filter mode.
Given the strong affinity of Orn for pAp, it was investigated whether pAp affects Orn activity. […] Those small RNA-oligos are called here nanoRNAs, in order to distinguish them from microRNAs, which have become a subject of extensive studies in the last several years. RNA-oligo 5-mers (5′-CCCCC-3′) labeled at their 5′-phosphate end with the sulfoindocyanine succinimidyl ester cyanine 5 (Cy5) were therefore used as substrate for in vitro assays with purified recombinant Orn. […]

Orn [3] = target: T2, Orn; experiment: pAp/AMP-binding assay with recombinant Orn; parameters: species or system E. coli; settings: 15 μg protein, 5 μl agarose
Description: (§1) 30 μl samples containing 15 μg of Orn-His or CysQ-His in pAp-agarose buffer containing 100 mM NaCl were incubated with 5 μl of prewashed pAp- or AMP-agarose by rotating for 1 hour at 4° C. in durapore spin columns (Millipore). Beads were removed by centrifugation, and 5 μl of the unbound fraction, designated flow through was measured for protein content using Bio-Rad protein assay. The fraction bound to the beads was eluted by the addition of 40 μl of hot SDS-sample buffer and incubation for 15 minutes at 65° C.
(§2) Orn is an essential protein in E. coli involved in mRNA degradation. It has 3′ to 5′ exoribonuclease activity selectively active on short ribonucleotides. 5′adenosine monophosphate (AMP) is known to inhibit Orn (Datta & Niyogi, 1975). It was therefore important to compare binding of Orn to AMP and pAp. To this end recombinant Orn has been purified and its binding was measured to equal amounts of pAp- or AMP-agarose, both affinity substrates with identical binding capacities, CysQ was included as a positive control. Similar experiments were done with cell free extracts from strains overexpressing Orn or CysQ. […] Furthermore, significant amounts of Orn, roughly one third, but not CysQ bind to AMP-agarose. […]

CysQ [4] = target: T1, CysQ; experiment: pAp/AMP-binding assay with recombinant CysQ; parameters: species or system E. coli; settings: 15 μg protein, 5 μl agarose
Description: as §1, §2

Sfn [5] = target: T3, Sfn (Homo sapiens, UniProt Q9Y3B8); experiment: Sfn-catalyzed degradation of oligo RNA; type: biochemical
T3 construct: His tag; made in house
T3 sequence (Q9Y3B8 26-237): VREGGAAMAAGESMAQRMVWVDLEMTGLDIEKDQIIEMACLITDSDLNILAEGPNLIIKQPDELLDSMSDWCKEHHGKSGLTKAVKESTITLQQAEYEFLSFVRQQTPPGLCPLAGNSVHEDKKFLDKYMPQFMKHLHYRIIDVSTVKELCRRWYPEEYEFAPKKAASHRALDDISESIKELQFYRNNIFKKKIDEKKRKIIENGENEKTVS
Description: (§3) FIG. 9: Sensitivity of Sfn-catalyzed degradation of oligo RNA to pAp. Shown is the quantification of the distribution of reaction products that were separated on 22% PAA gels. Reactions included 0.5 μg Sfn and 3 μM of RNA oligo 5mer (5′Cy5-CCCCC3′). Reactions were started by the addition of enzyme. 20 μM or 50 μM pAp was present where indicated. Closed circle: 5mer, open circle: 4mer, closed triangle: 3mer, open triangle: 2mer, square: 1mer.
The term nanoRNA has been introduced to describe these extremely short RNA oligos. The Inventors have purified His-tagged Sfn in order to evaluate its sensitivity to pAp in-vitro. Inhibition of Sfn-catalyzed degradation of nanoRNA was tested at two concentrations of the inhibitor, 20 and 50 μM.

Sfn [6] = target: T3, Sfn; experiment: Sfn-catalyzed degradation of oligo DNA; type: biochemical; settings: 50 μM pAp; DNA oligo 5mer
Description: as §3, with “10:” for “9:”, “DNA” for “RNA”, “3” for “0.5”, “enzyme.” for “enzyme. 20 μM or”, “2mer. Monomers could not be included into this calculation due to their inability to enter the gel.” for “2mer, square: 1mer.”

PARP = target: T4, PARP (Homo sapiens, UniProt P09874); experiment: Colorimetric PARP assay from Trevigen; type: biochemical; settings: 1 μM pAp, in vitro
T4 construct: purchased Trevigen
Text: The Inventors plan to verify this effect using an independent method, as they are not certain the effect that can be observed with the kit they used for this experiment (Colorimetric PARP assay from Trevigen) is independent of the nature of the inhibitor, as it seems that the phenomenon of self-inhibition of PARP due to auto modification has an important impact on the result. They plan therefore to measure PARP activity in-vitro in the presence or absence of pAp according to J. C. Ame using ^32P-NAD.

T1 sequence (P22255 whole entry): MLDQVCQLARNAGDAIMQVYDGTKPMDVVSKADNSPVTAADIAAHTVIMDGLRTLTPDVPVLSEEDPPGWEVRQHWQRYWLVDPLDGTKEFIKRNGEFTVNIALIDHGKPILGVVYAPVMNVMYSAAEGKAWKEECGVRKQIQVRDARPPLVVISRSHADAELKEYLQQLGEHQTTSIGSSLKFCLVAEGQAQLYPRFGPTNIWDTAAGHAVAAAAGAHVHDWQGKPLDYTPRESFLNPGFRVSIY
T2 sequence (P0A784 whole entry): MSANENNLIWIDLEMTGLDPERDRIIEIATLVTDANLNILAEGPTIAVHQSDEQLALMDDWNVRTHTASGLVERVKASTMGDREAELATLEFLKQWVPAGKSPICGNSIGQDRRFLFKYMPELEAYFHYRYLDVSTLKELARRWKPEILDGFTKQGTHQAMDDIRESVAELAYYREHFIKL
Sequence of NM23-H2 (P22392 whole entry): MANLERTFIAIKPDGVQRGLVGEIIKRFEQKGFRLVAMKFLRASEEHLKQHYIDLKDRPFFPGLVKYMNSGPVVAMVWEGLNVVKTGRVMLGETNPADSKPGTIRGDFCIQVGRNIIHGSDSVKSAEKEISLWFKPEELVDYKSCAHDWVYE
T4 sequence (P09874 whole entry): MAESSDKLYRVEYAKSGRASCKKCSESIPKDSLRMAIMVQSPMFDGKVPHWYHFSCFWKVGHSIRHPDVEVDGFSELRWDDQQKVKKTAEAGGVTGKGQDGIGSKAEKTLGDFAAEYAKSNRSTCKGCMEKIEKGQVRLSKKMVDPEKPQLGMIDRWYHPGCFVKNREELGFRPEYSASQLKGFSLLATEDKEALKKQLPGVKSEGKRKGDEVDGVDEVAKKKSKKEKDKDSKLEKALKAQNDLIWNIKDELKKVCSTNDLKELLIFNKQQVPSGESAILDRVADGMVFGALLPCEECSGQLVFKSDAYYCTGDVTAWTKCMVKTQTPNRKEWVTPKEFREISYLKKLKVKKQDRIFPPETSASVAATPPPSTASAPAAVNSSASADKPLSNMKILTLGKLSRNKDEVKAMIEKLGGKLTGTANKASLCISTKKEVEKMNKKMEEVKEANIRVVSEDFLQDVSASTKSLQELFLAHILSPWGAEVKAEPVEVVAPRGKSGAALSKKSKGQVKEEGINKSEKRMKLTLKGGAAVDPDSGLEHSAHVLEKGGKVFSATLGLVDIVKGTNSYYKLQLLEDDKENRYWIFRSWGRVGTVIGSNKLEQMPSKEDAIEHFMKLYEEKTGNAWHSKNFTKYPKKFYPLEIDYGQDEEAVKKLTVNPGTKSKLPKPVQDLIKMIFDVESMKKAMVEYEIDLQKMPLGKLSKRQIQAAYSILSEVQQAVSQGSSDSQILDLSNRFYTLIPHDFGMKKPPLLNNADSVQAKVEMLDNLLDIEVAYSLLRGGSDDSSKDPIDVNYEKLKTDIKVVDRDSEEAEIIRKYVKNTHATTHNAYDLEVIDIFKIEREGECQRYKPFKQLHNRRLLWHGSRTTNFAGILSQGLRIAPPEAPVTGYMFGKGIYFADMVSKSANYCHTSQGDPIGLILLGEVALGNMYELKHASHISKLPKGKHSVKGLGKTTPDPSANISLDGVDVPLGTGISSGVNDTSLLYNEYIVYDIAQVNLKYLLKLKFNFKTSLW

[Ca+2].[Cl-].[Cl-] [CaCl2]
inhibition of CysQ (CysQ [1]; 2 mM CaCl2, in the presence of 200 mM NaCl): complete inhibition

[Cl-].[Na+] [sodium, NaCl]
inhibition of CysQ by sodium (CysQ [1]; physiological concentrations, 200 mM NaCl): not inhibitory

Nc1ncnc2c1ncn2[C@@H]1O[C@H](COP(=O)(O)OP(=O)(O)OP(=O)(O)O)[C@@H](O)[C@H]1O [ATP]
inhibition of the cleavage reaction (NM23-H2; 0.5 mM): 50%

Nc1ncnc2c1ncn2[C@@H]1O[C@H](COP(=O)(O)O)[C@@H](O)[C@H]1O [AMP, 5′adenosine monophosphate]
inhibition of degradation of nanoRNA by Orn (Orn [2]): inhibiting | binding of Orn to nucleotide-agarose (Orn [3]): roughly one third | binding of CysQ to nucleotide-agarose (CysQ [4]): not

Nc1ncnc2c1ncn2[C@@H]1O[C@H](COP(=O)(O)O)[C@@H](OP(=O)(O)O)[C@H]1O [pAp, 3′-phosphoadenosine 5′-phosphate]
inhibition of degradation of nanoRNA by Orn (Orn [2]): significantly more pronounced | inhibition of Sfn-catalyzed degradation of nanoRNA (Sfn [5]; 20 μM pAp): Significant inhibition | inhibition of Sfn-catalyzed degradation of nanoRNA (Sfn [5]; 50 μM pAp): increasing inhibition | sensitivity of Sfn-catalyzed degradation of DNA oligos (Sfn [6]): highly sensitive | PARP activity (PARP): 60% | binding of Orn to nucleotide-agarose (Orn [3]): almost quantitatively | binding of CysQ to nucleotide-agarose (CysQ [4]): almost quantitatively

Nc1ncnc2c1ncn2[C@@H]1O[C@H](COP(=O)(O)OP(=O)(O)O)[C@@H](O)[C@H]1O [ADP]
inhibition of the cleavage reaction (yes/no) (NM23-H2): not
